Reference: patent US20170166558A1, “O-GLCNAC TRANSFERASE (OGT) INHIBITORS AND USES THEREOF” (President and Fellows of Harvard College, priority 2014, published 2017)

Experiments:
[1] = test system: CHO, HEK-293, HeLa and D283-Med cells; assay: Immunoblotting of global O-GlcNAcylation in various mammalian cell types; type: cell-based; details: 50 μM, 24 hours
Description: (§1) In vivo inhibition of glycosylation: For all immunoblotting experiments, CHO-K1 (CHO) cells were grown in F12-K media supplemented with 10% FBS and antibiotics at 37° C. in a 5% CO2 incubator. Cells were treated by adding indicated inhibitor in DMSO vehicle (0.5% final vehicle concentration) upon reaching 70% confluence. After indicated treatment length, cells were harvested by aspirating growth media and washing with ice cold 1× PBS. Cells were subsequently lysed in boiling 1% SDS/20 mM HEPES 7.9. After cooling to room temperature, 1 mM PMSF, 10 μM PUGNAC, 10 μM TMG and 1× Complete protease inhibitor cocktail were added to the solution. The mixture was sonicated and then subjected to a 5 minute incubation at 95° C. The samples were centrifuged for 15 minutes at 20,000×g and the supernatant was collected and the total protein was measured by BCA assay (BIO-RAD).
The sample was separated by SDS-PAGE (Bio-Rad 4-15%, Cat: 345-0028), transferred to a nitrocellulose membrane (iBlot, Invitrogen) and probed with the indicated antibody. Tyipcally, membranes were blocked with 4% BSA in 1× TBS+0.04% tween-20 for 1 hour before incubating with antibody (typically diluted 1:1000 in 4% BSA inlx TBS+0.04% tween-20) overnight at 4° C. […]

OGT in CHO cells [2] = assay: Immunoblotting of global O-GlcNAcylation (RL2) in CHO cells; type: cell-based, Chinese hamster
Description: as §1
(§2) The sample was separated by SDS-PAGE (Bio-Rad 4-15%, Cat: 345-0028), transferred to a nitrocellulose membrane (iBlot, Invitrogen) and probed with the indicated antibody. Tyipcally, membranes were blocked with 4% BSA in 1× TBS+0.04% tween-20 for 1 hour before incubating with antibody (typically diluted 1:1000 in 4% BSA inlx TBS+0.04% tween-20) overnight at 4° C. Membranes were then washed three times with 1× TBS+0.04% tween-20 and incubated with secondary antibody (typically diluted 1:5000 in 4% BSA in 1× TBS+0.04% tween-20) for 1 hour at room temperature. Lastly, membranes were washed 3× with 1× TBS+0.04% tween-20 and imaged with ECL. D283-Med cells were treated as above but grown in F12-K media supplemented with 10% FBS and antibiotics. HEK, HeLa and LNCaP cells were treated as above but grown in RPMI media supplemented with 10% FBS and antibiotics.

OGT in CHO cells [3] = assay: Markers of OGT inhibition in CHO cells (Nup62 mass shift, OGA levels, H2B-S112 O-GlcNAc); type: cell-based, Chinese hamster
Description: as §1, §2

[4] = test system: cell surface glycans of CHO cells; assay: Lectin blots of cell surface glycans of CHO cells; type: cell-based, Chinese hamster; details: 50 μM, 24 hours
Description: Lectin blots were performed with the CHO-K1 cell lysate as prepared above. […] The biotin label on the lectins was visualized with incubation with Streptavidin-HRP (Pierce) followed by ECL detection and imaging.

SMILES: CC(=O)N[C@@H]1[C@@H](OC(C)=O)[C@H](OC(C)=O)[C@@H](COC(C)=O)S[C@@H]1OC(C)=O [Ac4-5SGlcNAc, reference compound]
- Global O-GlcNAc levels in four cell lines [1]: reduce global O-GlcNAc levels in all four lines examined
- Onset of reduction of global O-GlcNAcylation (OGT in CHO cells [2]; 50 μM, 8-hour time course): only at four hours
- Effect on global O-GlcNAcylation (OGT in CHO cells [2]; 24 hours, up to 50 μM): reduced global O-GlcNAcylation to a greater extent than OSMI-1
- Cellular OGA levels (OGT in CHO cells [3]): reduced cellular OGA
- Changes in bands detected by ConA, PHA-L, ECL, GSL-I, PNA or DBA [4]: minimal changes
- Changes in glycans detected by Jacalin, PHA-E and LCA [4]: dramatic changes
